Experimental data as given in the Kinase Knowledgebase extract (Sharma et al. 2016).
pIC50: −log10 of the molar value.

biological target: EGFR (human) (UniProt P00533)
Sequence (P00533 whole entry, looked up): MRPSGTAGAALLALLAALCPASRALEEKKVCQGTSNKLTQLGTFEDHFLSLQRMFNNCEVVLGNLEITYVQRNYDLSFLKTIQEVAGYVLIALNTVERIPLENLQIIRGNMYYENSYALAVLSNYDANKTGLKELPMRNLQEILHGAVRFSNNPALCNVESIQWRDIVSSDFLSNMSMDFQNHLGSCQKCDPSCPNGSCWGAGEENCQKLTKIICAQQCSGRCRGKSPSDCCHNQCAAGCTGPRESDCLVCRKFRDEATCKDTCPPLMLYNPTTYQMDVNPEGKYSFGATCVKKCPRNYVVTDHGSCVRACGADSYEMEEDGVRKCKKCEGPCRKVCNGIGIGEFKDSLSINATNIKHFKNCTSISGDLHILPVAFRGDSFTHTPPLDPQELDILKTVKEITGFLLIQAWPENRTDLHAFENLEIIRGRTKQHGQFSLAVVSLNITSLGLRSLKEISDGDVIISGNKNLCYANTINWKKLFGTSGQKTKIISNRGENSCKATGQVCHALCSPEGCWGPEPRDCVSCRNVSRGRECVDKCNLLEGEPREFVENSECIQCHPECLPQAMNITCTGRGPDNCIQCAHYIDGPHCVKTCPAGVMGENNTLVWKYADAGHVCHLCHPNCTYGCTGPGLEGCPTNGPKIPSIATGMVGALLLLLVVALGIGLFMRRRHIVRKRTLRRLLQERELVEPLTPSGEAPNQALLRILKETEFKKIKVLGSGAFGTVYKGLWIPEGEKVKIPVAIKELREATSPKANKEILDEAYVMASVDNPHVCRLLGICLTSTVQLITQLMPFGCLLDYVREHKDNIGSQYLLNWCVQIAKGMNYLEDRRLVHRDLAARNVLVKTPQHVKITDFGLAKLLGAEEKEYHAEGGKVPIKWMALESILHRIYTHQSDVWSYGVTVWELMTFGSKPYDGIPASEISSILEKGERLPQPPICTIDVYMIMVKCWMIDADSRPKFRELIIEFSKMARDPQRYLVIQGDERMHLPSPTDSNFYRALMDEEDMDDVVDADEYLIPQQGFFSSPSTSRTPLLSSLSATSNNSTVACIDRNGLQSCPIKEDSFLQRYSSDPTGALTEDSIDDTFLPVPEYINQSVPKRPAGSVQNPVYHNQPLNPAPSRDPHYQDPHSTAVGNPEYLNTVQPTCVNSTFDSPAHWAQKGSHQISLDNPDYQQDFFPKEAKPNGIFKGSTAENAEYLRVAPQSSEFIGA

| SMILES | pIC50 |
| --- | --- |
| Clc1ccc(Nc2nc3nonc3nc2NN=Cc2ccco2)cc1Cl | > 6.00 |
| Clc1ccc(Nc2nc3nonc3nc2NN=Cc2ccc(-c3ccccc3)o2)cc1Cl | > 6.00 |
| Oc1c(Br)cc(Cl)cc1C=NNc1nc2nonc2nc1Nc1ccc(Cl)c(Cl)c1 | > 6.00 |
| Fc1ccc(Nc2nc3nonc3nc2NN=Cc2ccc(-c3ccccc3)o2)cc1Cl | > 6.00 |
| COc1cccc(C=NNc2nc3nonc3nc2Nc2ccc(Cl)c(Cl)c2)c1O | > 6.00 |
| O=C1Nc2ccccc2C1=NNc1nc2nonc2nc1Nc1ccc(Cl)c(Cl)c1 | > 6.00 |
| Oc1c(Br)cc(Br)cc1C=NNc1nc2nonc2nc1Nc1cccc(Cl)c1 | > 6.00 |
| O=C(O)c1cc(-c2ccc(C=NNc3nc4nonc4nc3Nc3ccc(F)cc3)o2)ccc1Cl | > 6.00 |
| COc1cc(Br)cc(C=NNc2nc3nonc3nc2Nc2cccc(Cl)c2)c1O | > 6.00 |
| Cc1cccc(Nc2nc3nonc3nc2NN=Cc2ccc(-c3cccc(C(=O)O)c3)o2)c1 | > 6.00 |
| O=C(O)c1cc(-c2ccc(C=NNc3nc4nonc4nc3Nc3ccc(Br)cc3)o2)ccc1Cl | > 6.00 |
| O=C(O)c1ccc(-c2ccc(C=NNc3nc4nonc4nc3Nc3ccc(F)c(Cl)c3)o2)cc1 | > 6.00 |
| O=C(O)c1cccc(-c2ccc(C=NNc3nc4nonc4nc3Nc3cccc(Cl)c3)o2)c1 | > 6.00 |
| Oc1c(Br)cc(Br)cc1C=NNc1nc2nonc2nc1Nc1ccc(F)c(Cl)c1 | > 6.00 |
| O=C(O)c1ccc(-c2ccc(C=NNc3nc4nonc4nc3Nc3ccc(F)cc3)o2)cc1 | > 6.00 |
| O=[N+]([O-])c1cccc(-c2ccc(C=NNc3nc4nonc4nc3Nc3ccc(F)cc3)o2)c1 | > 6.00 |
| O=C(O)c1cc(-c2ccc(C=NNc3nc4nonc4nc3Nc3ccccc3F)o2)ccc1O | > 6.00 |
| O=C(O)c1ccc(-c2ccc(C=NNc3nc4nonc4nc3Nc3ccc(Cl)c(Cl)c3)o2)cc1 | > 6.00 |
| NC(=O)c1cccc(-c2ccc(C=NNc3nc4nonc4nc3Nc3ccc(F)c(Cl)c3)o2)c1 | > 6.00 |
| Oc1ccc(C=NNc2nc3nonc3nc2Nc2ccc(Cl)c(Cl)c2)c(O)c1 | > 6.00 |
| CCOC(=O)c1ccccc1C=NNc1nc2nonc2nc1Nc1ccc(Cl)c(Cl)c1 | > 6.00 |
| NC(=O)c1cccc(-c2ccc(C=NNc3nc4nonc4nc3Nc3ccc(Cl)c(Cl)c3)o2)c1 | > 6.00 |
| O=[N+]([O-])c1cccc(-c2ccc(C=NNc3nc4nonc4nc3Nc3cccc(Cl)c3)o2)c1 | > 6.00 |
| Fc1ccc(Nc2nc3nonc3nc2NN=Cc2ccc(-c3ccc(Cl)cc3)o2)cc1Cl | > 6.00 |
| O=C(O)c1cc(-c2ccc(C=NNc3nc4nonc4nc3Nc3ccc(Cl)c(Cl)c3)o2)ccc1Cl | > 6.00 |
| COc1ccc(O)c(C=NNc2nc3nonc3nc2Nc2ccc(Cl)c(Cl)c2)c1 | > 6.00 |
| COc1cc(C=NNc2nc3nonc3nc2Nc2ccccc2F)cc([N+](=O)[O-])c1O | > 6.00 |
| Fc1ccc(Nc2nc3nonc3nc2NN=Cc2cc3ccccc3o2)cc1Cl | > 6.00 |

Next, values leading:

| pIC50 | SMILES |
| --- | --- |
| > 6.00 | O=C(O)c1cccc(C=NNc2nc3nonc3nc2Nc2ccc(Cl)c(Cl)c2)c1 |
| > 6.00 | O=C(O)c1cccc(C=NNc2nc3nonc3nc2Nc2ccc(F)c(Cl)c2)c1 |
| > 6.00 | O=c1[nH]c2ccc(Nc3nc4nonc4nc3NN=Cc3cc(I)cc(I)c3OCc3ccc(Cl)cc3Cl)cc2[nH]1 |
| > 6.00 | Clc1ccc(-c2ccc(C=NNc3nc4nonc4nc3Nc3ccc(Cl)c(Cl)c3)o2)cc1 |
| > 6.00 | COc1ccc(C=NNc2nc3nonc3nc2Nc2ccc(Cl)c(Cl)c2)c(O)c1 |
| > 6.00 | O=C(O)c1cc(-c2ccc(C=NNc3nc4nonc4nc3Nc3ccccc3F)o2)ccc1Cl |
| > 6.00 | O=C(O)c1cccc(-c2ccc(C=NNc3nc4nonc4nc3Nc3ccc(Cl)c(Cl)c3)o2)c1 |
| > 6.00 | O=C(O)c1cc(-c2ccc(C=NNc3nc4nonc4nc3Nc3ccc(F)c(Cl)c3)o2)ccc1Cl |
| > 6.00 | Clc1ccc(Nc2nc3nonc3nc2NN=Cc2cc3ccccc3o2)cc1Cl |
| > 6.00 | O=C1Nc2ccccc2C1=NNc1nc2nonc2nc1Nc1ccc(F)c(Cl)c1 |
| > 6.00 | O=C(O)c1ccc(C=NNc2nc3nonc3nc2Nc2ccc(F)c(Cl)c2)cc1 |
| > 6.00 | Fc1ccc(Nc2nc3nonc3nc2NN=Cc2ccc(-c3ccc(Cl)cc3Cl)o2)cc1 |
| > 6.00 | Cc1cccc(Nc2nc3nonc3nc2NN=Cc2ccc(-c3ccc(Cl)c(C(=O)O)c3)o2)c1C |
